Patent publication US20210395239A1 (Hoffmann-La Roche Inc., priority 2018, published 2021)
pIC50: −log10 of the molar value.

Target: T1, hTLR9 (Homo sapiens, UniProt Q9NR96)
T1 sequence (Q9NR96 26-1032): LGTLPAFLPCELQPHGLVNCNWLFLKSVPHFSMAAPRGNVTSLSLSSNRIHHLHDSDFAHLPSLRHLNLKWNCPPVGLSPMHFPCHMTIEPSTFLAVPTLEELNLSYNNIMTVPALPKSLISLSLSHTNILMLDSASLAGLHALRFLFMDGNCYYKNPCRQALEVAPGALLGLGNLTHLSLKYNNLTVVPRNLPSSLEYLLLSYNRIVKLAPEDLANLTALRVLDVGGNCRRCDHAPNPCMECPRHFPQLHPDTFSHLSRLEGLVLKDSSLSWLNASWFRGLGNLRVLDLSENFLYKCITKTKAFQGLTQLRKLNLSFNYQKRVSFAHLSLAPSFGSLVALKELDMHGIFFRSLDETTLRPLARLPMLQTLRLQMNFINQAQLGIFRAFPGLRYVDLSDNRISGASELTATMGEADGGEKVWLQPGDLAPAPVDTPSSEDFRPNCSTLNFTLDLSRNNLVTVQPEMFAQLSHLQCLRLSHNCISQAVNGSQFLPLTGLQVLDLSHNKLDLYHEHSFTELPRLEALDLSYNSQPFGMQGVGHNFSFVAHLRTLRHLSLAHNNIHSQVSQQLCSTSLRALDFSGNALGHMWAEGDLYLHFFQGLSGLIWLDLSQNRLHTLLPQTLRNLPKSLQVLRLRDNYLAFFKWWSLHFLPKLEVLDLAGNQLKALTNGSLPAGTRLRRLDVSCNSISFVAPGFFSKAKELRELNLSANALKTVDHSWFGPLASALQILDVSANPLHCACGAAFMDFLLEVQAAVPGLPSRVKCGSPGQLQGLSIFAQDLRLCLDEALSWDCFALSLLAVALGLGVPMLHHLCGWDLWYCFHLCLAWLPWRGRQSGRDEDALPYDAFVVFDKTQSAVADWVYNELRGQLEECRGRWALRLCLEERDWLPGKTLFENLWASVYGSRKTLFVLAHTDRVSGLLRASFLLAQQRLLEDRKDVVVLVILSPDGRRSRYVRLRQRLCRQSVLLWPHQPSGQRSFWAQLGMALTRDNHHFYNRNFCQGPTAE
Experiment: HEK293-Blue-hTLR-9 cells assay (SEAP reporter, ODN2006 stimulation)
Format: cell-based
Design: host or cells: HEK293 (HEK-Blue hTLR9)
Conditions: HEK293-Blue-hTLR9 cells, ODN2006, 20 hrs; read-out: HEK/hTLR9 IC50
In short: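 HEK293-Blue-hTLR9 cells with NF-κB/AP-1-driven SEAP reporter treated with serially diluted compound (1% DMSO final) plus ODN2006 for 20 h at 37 °C. Supernatant SEAP measured with QUANTI-Blue, 2 h at 37 °C, absorbance 620–655 nm; antagonism seen as reduced reporter signal.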

pIC50	SMILES
7.07	CO[C@@H]1CN(c2ccc(C3CN(C[C@H]4CN(c5ccc(C#N)n6ncc(F)c56)C[C@@H](C)O4)C3)cn2)C[C@H]1N [Example 164, 4-[(2S,6R)-2-[[3-[6-[(3R,4R)-3-amino-4-methoxy-pyrrolidin-1-yl]-3-pyridyl]azetidin-1-yl]methyl]-6-methyl-morpholin-4-yl]-3-fluoro-pyrazolo[1,5-a]pyridine-7-carbonitrile]
6.97	C[C@@H]1CN(c2ccc(C#N)n3ncc(F)c23)C[C@H](CN2CC(c3ccc(N4C[C@@H]5C[C@H]4CN5)nc3)C2)O1 [Example 165, 4-[(2S,6R)-2-[[3-[6-[(1S,4S)-2,5-diazabicyclo[2.2.1]heptan-2-yl]-3-pyridyl]azetidin-1-yl]methyl]-6-methyl-morpholin-4-yl]-3-fluoro-pyrazolo[1,5-a]pyridine-7-carbonitrile]
7.34	CO[C@@H]1CN(c2ccc(N3CCN(C[C@H]4CN(c5ccc(C#N)n6ncc(F)c56)C[C@@H](C)O4)CC3)cn2)C[C@H]1N [Example 166, 4-[(2S,6R)-2-[[4-[6-[(3R,4R)-3-amino-4-methoxy-pyrrolidin-1-yl]-3-pyridyl]piperazin-1-yl]methyl]-6-methyl-morpholin-4-yl]-3-fluoro-pyrazolo[1,5-a]pyridine-7-carbonitrile]
